Here are results for 16 compounds from patent publication US10280166B2, “2-(1H-indazol-3-yl)-3H-imidazo[4,5-B]pyridine and therapeutic uses thereof” (Samumed, LLC, priority 2014, dated 2019).

The structures appear in SMILES notation.

As a reminder, the IC50 is the concentration needed to halve the response being measured. A low value points to higher potency. The EC50 is the concentration needed to bring the measured effect to its halfway point.

What all share (assay type): cell-based
Test [1] concerns primary human mesenchymal stem cells (hMSCs). As to the kind of experiment: Chondrogenesis induction screen in primary human mesenchymal stem cells. The conditions noted are these: 6 days, chondrogenic nodules, dose range 10-2700 nM. The procedure: The above synthesized compounds were screened using primary human mesenchymal stem cells (hMSCs) to determine their ability to induce chondrogenesis (process by which cartilage is developed).
Primary human mesenchymal stem cells (hMSCs) were purchased from Lonza (Walkersville, Md.) and expanded in Mesenchymal Stem Cell Growth Media (Lonza). Cells between passage 3 and 6 were used for the experiments.
Each compound was dissolved in DMSO as a 10 mM stock and used to prepare compound source plates. Serial dilution (1:3, 6-point dose-response curves from 2700 nM to 10 nM) and compound transfer was performed using the ECHO 550 (Labcyte, Sunnyvale, Calif.) into 96-well clear bottom assay plates (Greiner Bio-One) with appropriate DMSO backfill for a final DMSO concentration of 0.03%. hMSCs were plated at 20,000 cells/well in 250 μL/well Incomplete Chondrogenic Induction Medium (Lonza; DMEM, dexamethasone, ascorbate, insulin-transferrin-selenium [ITS supplement], gentamycin-amphotericin [GA-1000], sodium pyruvate, proline and L-glutamine). TGF-β3 (10 ng/mL) was used as a positive control for differentiation while negative control wells were treated with 75 nL DMSO for normalization and calculating EC50 values. Cells were incubated at 37° C. and 5% CO2 for 6 days. To image chondrogenic nodules, the cells were fixed using 4% formaldehyde (Electron Microscopy Sciences), and stained with 2 μg/mL Rhodamine B (Sigma-Aldrich) and 20 μM Nile Red (Sigma-Aldrich) [Johnson K., et.al, A Stem Cell—Based Approach to Cartilage Repair, Science, (2012), 336(6082), 717-721]. The nodules imaged (4 images per well at 4× magnification) by excitation at 531 nm and emission at 625 nm and quantified using the CellInsight CX5 (Thermo Scientific). Number of nodules in each well was normalized to the average of 3 DMSO treated wells on the same plate using Excel (Microsoft Inc.). The normalized averages (fold change over DMSO) of 3 replicate wells for each compound concentration were calculated. Due to solubility limitations of some of the compounds, curve fitting was incomplete leading to inaccurate EC50 determinations.
Using TGF-β3 as a positive control, the concentration of test compounds required to induce equivalent levels of chondrogenesis is reported. In addition, the maximum activity of each compound and the respective dose that each compound reached maximum chondrogenesis activity is reported.

The test system of test [2] is Wnt activity (SW480 colon carcinoma cells stably expressing the Sp5-Luc reporter gene). The test can be described thus: Sp5-Luc reporter gene screening assay for Wnt activity in SW480 cells. The settings on record: Homo sapiens, 42 h incubation, luminescence. In outline: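 SW480 cells stably carrying an Sp5 promoter (eight TCF/LEF sites)-luciferase reporter were plated overnight in 10% FCS medium. BrightGlo luminescence was normalised to DMSO wells, and IC50 was obtained by four-parameter fit.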
A general note: In a reporter assay the amount or activity of a reporter protein is the signal.

Test [3] relates to primary human fibroblasts derived from IPF patients (LL29 cells). The test can be described thus: Inhibition of fibrosis (αSMA) in TGF-β1 treated primary human fibroblasts from IPF patients. The settings on record: Fibroblast, 96 h, TGF-β1 20 ng/mL, 4 days, % αSMA positive cells. In outline:
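IPF patient-derived LL29 lung fibroblasts in 1% FBS were treated with compound (11 points, 10 μM to 1.87 nM, 0.1% DMSO) and then 20 ng/mL TGF-β1 for 4 days at 37° C. Fraction of SYTOX-negative cells positive for αSMA was quantified by immunofluorescence imaging and normalized to TGF-β1 controls. EC50 came from non-linear regression over triplicate wells.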

Consider `Fc1cccc(-c2ccnc3[nH]c(-c4n[nH]c5ccc(-c6cn[nH]c6)cc45)nc23)c1` [Compound 1875, 2-(5-(1H-Pyrazol-4-yl)-1H-indazol-3-yl)-7-(3-fluorophenyl)-3H-imidazo[4,5-b]pyridine], for which, in test [1], the “Conc (nM) of Max. activity” value is listed as 2700 nM. For the same compound, 5000 pM corresponded to half-maximal inhibition in test [2] (IC50). For the same compound, a half-maximal effect in test [3] (EC50) was put at 9 pM.
The matching figures for `CN(C)c1cncc(-c2ccc3[nH]nc(-c4nc5c(-c6cccc(F)c6)ccnc5[nH]4)c3c2)c1` [Compound 7, 5-(3-(7-(3-Fluorophenyl)-3H-imidazo[4,5-b]pyridin-2-yl)-1H-indazol-5-yl)-N,N-dimethylpyridin-3-amine]: 100 nM, below 1000 pM and 66 pM.
The matching figures for `c1cncc(-c2ccc3[nH]nc(-c4nc5c(-c6cccnc6)ccnc5[nH]4)c3c2)c1` [Compound 82, 7-(Pyridin-3-yl)-2-(5-(pyridin-3-yl)-1H-indazol-3-yl)-3H-imidazo[4,5-b]pyridine]: 10 nM, 3500 pM and 303 pM.
The matching figures for `CCCC(=O)Nc1cncc(-c2ccc3[nH]nc(-c4nc5c(-c6cc(F)cc(CNS(C)(=O)=O)c6)ccnc5[nH]4)c3c2)c1` [Compound 433, N-(5-(3-(7-(3-Fluoro-5-(methylsulfonamidomethyl)phenyl)-3H-imidazo[4,5-b]pyridin-2-yl)-1H-indazol-5-yl)pyridin-3-yl)butyramide]: 2700 nM, 3000 pM and above 10000 pM.
As for `CCCC(=O)Nc1cncc(-c2ccc3[nH]nc(-c4nc5c(-c6ccsc6)ccnc5[nH]4)c3c2)c1` [Compound 277, N-(5-(3-(7-(Thiophen-3-yl)-3H-imidazo[4,5-b]pyridin-2-yl)-1H-indazol-5-yl)pyridin-3-yl)butyramide], the “Conc (nM) of Max. activity” value in test [1] was determined as 30 nM. In test [2], this compound returned an IC50 of 1000 pM. Also, the EC50 in test [3] is 16 pM.
The matching figures for `Cc1cn(-c2ccnc3[nH]c(-c4n[nH]c5ccc(-c6cncc(NC(=O)CC(C)C)c6)cc45)nc23)cn1` [Compound 184, 3-Methyl-N-(5-(3-(7-(4-methyl-1H-imidazol-1-yl)-3H-imidazo[4,5-b]pyridin-2-yl)-1H-indazol-5-yl)pyridin-3-yl)butanamide]: 300 nM, 2300 pM and 142 pM.
In the case of `Nc1cncc(-c2ccc3[nH]nc(-c4nc5c(-c6ccccc6F)ccnc5[nH]4)c3c2)c1` [Compound 55, 5-(3-(7-(2-Fluorophenyl)-3H-imidazo[4,5-b]pyridin-2-yl)-1H-indazol-5-yl)pyridin-3-amine], in test [1], the “Conc (nM) of Max. activity” value turned out to be 30 nM. Further, 1800 pM corresponded to half-maximal inhibition in test [2] (IC50). The EC50 in test [3] was determined as 17 pM.
The matching figures for `Cc1ccc(-c2ccnc3[nH]c(-c4n[nH]c5ccc(-c6cncc(NC(=O)C(C)C)c6)cc45)nc23)s1` [Compound 373, N-(5-(3-(7-(5-Methylthiophen-2-yl)-3H-imidazo[4,5-b]pyridin-2-yl)-1H-indazol-5-yl)pyridin-3-yl)isobutyramide]: 30 nM, 6400 pM and 45 pM.
The matching figures for `CC(C)CC(=O)Nc1cncc(-c2ccc3[nH]nc(-c4nc5c(-c6cccc(F)c6)ccnc5[nH]4)c3c2)c1` [Compound 2, N-(5-(3-(7-(3-Fluorophenyl)-3H-imidazo[4,5-b]pyridin-2-yl)-1H-indazol-5-yl)pyridin-3-yl)-3-methylbutanamide]: 30 nM, 2000 pM and 41 pM.
Consider `CCCCC(=O)Nc1cncc(-c2ccc3[nH]nc(-c4nc5c(-c6ccccn6)ccnc5[nH]4)c3c2)c1` [Compound 148, N-(5-(3-(7-(Pyridin-2-yl)-3H-imidazo[4,5-b]pyridin-2-yl)-1H-indazol-5-yl)pyridin-3-yl)pentanamide], for which the “Conc (nM) of Max. activity” value in test [1] came out at 100 nM. In test [2], this compound displayed a concentration for half-maximal inhibition (IC50) of 8100 pM. This compound came in with an EC50 in test [3] of 85 pM.
The matching figures for `Fc1cccc(-c2ccnc3[nH]c(-c4n[nH]c5ccc(-c6cncc(CN7CCC(F)(F)C7)c6)cc45)nc23)c1` [Compound 25, 2-(5-(5-((3,3-Difluoropyrrolidin-1-yl)methyl)pyridin-3-yl)-1H-indazol-3-yl)-7-(3-fluorophenyl)-3H-imidazo[4,5-b]pyridine]: 30 nM, below 1000 pM and 99 pM.
The matching figures for `CC(C)(C)C(=O)Nc1cncc(-c2ccc3[nH]nc(-c4nc5c(-c6ccc(F)s6)ccnc5[nH]4)c3c2)c1` [Compound 346, N-(5-(3-(7-(5-Fluorothiophen-2-yl)-3H-imidazo[4,5-b]pyridin-2-yl)-1H-indazol-5-yl)pyridin-3-yl)pivalamide]: 300 nM, 400 pM and 9 pM.
The matching figures for `CCCCC(=O)Nc1cncc(-c2ccc3[nH]nc(-c4nc5c(-c6cc(F)cc(NCCN(C)C)c6)ccnc5[nH]4)c3c2)c1` [Compound 460, N-(5-(3-(7-(3-((2-(Dimethylamino)ethyl)amino)-5-fluorophenyl)-3H-imidazo[4,5-b]pyridin-2-yl)-1H-indazol-5-yl)pyridin-3-yl)pentanamide]: 30 nM, 11600 pM and 111 pM.
As to `CC(C)Nc1cncc(-c2ccc3[nH]nc(-c4nc5c(-c6ccoc6)ccnc5[nH]4)c3c2)c1` [Compound 298, 5-(3-(7-(Furan-3-yl)-3H-imidazo[4,5-b]pyridin-2-yl)-1H-indazol-5-yl)-N-isopropylpyridin-3-amine], the “Conc (nM) of Max. activity” value in test [1] came out at 30 nM. For the same compound, the IC50 in test [2] stood at 5000 pM. This compound also gave an EC50 in test [3] of 102 pM.
The matching figures for `Oc1cncc(-c2ccc3[nH]nc(-c4nc5c(-c6cccc(F)c6)ccnc5[nH]4)c3c2)c1` [Compound 1885, 5-(3-(7-(3-Fluorophenyl)-3H-imidazo[4,5-b]pyridin-2-yl)-1H-indazol-5-yl)pyridin-3-ol]: 100 nM, 11000 pM and 9 pM.
The matching figures for `Cc1ccncc1-c1ccc2[nH]nc(-c3nc4c(-c5ccncc5)ccnc4[nH]3)c2c1` [Compound 109, 2-(5-(4-Methylpyridin-3-yl)-1H-indazol-3-yl)-7-(pyridin-4-yl)-3H-imidazo[4,5-b]pyridine]: 30 nM, 13700 pM and 781 pM.
